{
  "source": "patent US20240210394A1",
  "about": "“MICROORGANISM CAPTURE FROM ANTIMICROBIAL-CONTAINING SOLUTION” (MOMENTUM BIOSCIENCE LIMITED, priority 2019, published 2024)",
  "key": {"[1]": {"test_system": "S. pneumoniae", "test": "Blood culture time to positivity (flip time), bead rescue vs no-rescue control", "type": "cell-based", "conditions": "for Flip time: Bead rescue; for Flip time / Flip time in Days: 12600 cfu/5 ml blood; for Flip time in Days: Control (FA plus bottle); for Bead Rescue Flip time / Control Flip time in Days: antibiotic 1 mg/L blood", "protocol": "(§1) Day 1: Prepare overnight culture of test organism in blood/broth medium (50:50 blood:broth) and incubate at 37° C. (or 30° C. for C. neoformans) in a shaking incubator.\n(§2) (or 30° C. for C. neoformans) for 2 h for outgrowth. • Antibiotic added to whole blood (defibrinated horse blood) at required level • Whole blood as no-antibiotic control • Test dilution(s) of organism added to blood+antibiotic or blood only at 10 μL per mL of blood (sufficient prepared for experiment requirements) • 100 μL plate count sample taken (TO sample) • 2-hour incubation (static) at 37° C. (or 30° C. for C. neoformans) • 100 μL plate count sample taken (T2 sample) • 5 mL of spiked blood+abx or blood only added to blood culture bottle (using vial adapter) and incubation started (adapter removed) • 5 mL of spiked blood+abx or blood only (from same source) treated with Momentum Capture Beads as below: • 1. Capture Beads diluted in the relevant Capture Reagent—50 μL beads:700 μL capture reagent per clean-up • 2. 750 μL of diluted beads added to 50 mL conical centrifuge tube • 3. 5 mL of transfer medium added to tube • 4. 5 mL of spiked blood+abx or blood only added to tube • 5. Incubate on ITL TherMix (32.5° C./30 min/1000 rpm—ramped speed protocol) • 6. Magnetise on V&P magnet for 10 min then remove supernatant • 7. Resuspend beads in 1 mL Detergent-free Wash Buffer (DWB) off magnet and transfer to 2 mL Eppendorf flip-top tube on DynaMag-2 magnet • 8. Magnetise for 3 min then remove supernatant • 9. Resuspend beads in 1 mL Detergent-free Wash Buffer (DWB) off magnet then replace on DynaMag-2 magnet • 10. Magnetise for 3 min then remove supernatant • 11. Resuspend beads in 1 mL DWB, add to new blood culture bottle (using vial adapter) and start incubation (adapter removed)\n(§3) Record the “Flip” time of each bottle or bottle result at the end of 5 days incubation. The “Flip” time is when a bottle turns positive as determined by the automated blood culture cabinet, which records time to positivity.\n(§4) Day 1: Prepare overnight culture of test organism in blood/broth medium (50:50 blood:broth) and incubate at 37° C. in a shaking incubator.\n(§5) Momentum Capture Beads diluted in the relevant Capture Reagent—50 μL beads:700 μL capture reagent per clean-up • 2. 750 μL of diluted beads added to 50 mL conical centrifuge tube • 3. 5 mL of transfer medium added to tube • 4. 5 mL of spiked blood+abx or blood only added to tube • 5. Incubate on ITL TherMix (32.5° C./30 min/1000 rpm—ramped speed protocol) • 6. Magnetise on V&P magnet for 10 min then remove supernatant • 7. Resuspend beads in 1 mL Detergent-free Wash Buffer (DWB) off magnet and transfer to 2 mL Eppendorf flip-top tube on DynaMag-2 magnet • 8. Magnetise for 3 min then remove supernatant • 9. Resuspend beads in 1 mL Detergent-free Wash Buffer (DWB) off magnet then replace on DynaMag-2 magnet • 10. Magnetise for 3 min then remove supernatant • 11. Resuspend beads in 1 mL DWB, add to an unused blood culture bottle (BioMerieux FA+culture bottle) using vial adapter and start incubation (adapter removed)\nTo compare organism capture and rescue from FA plus bottles, on S. pneumoniae in Ceftriaxone. Reproduce experiment by Flayhart et al. 2007 testing antibiotic concentrations of 250, 125 and 94 mg/L and also include concentrations of 50 and 10 mg/L.\nIn the table below, “control” represents samples processed using FA plus bottles (also referred to as “BC” in the final column) and “bead rescue” refers to samples processed according to the methods of the invention."}, "[2]": {"test_system": "E. coli", "conditions": "cited from earlier work"}, "[3]": {"test_system": "E. coli", "test": "Blood culture time to positivity (flip time), bead rescue vs no-rescue control", "type": "cell-based", "conditions": "for Flip time: Bead rescue; for Bead Rescue Flip time / Control Flip time in Days: antibiotic 0.075 mg/L blood", "protocol": "as §4\nDay 2: Prepare ten-fold serial dilution of overnight culture in blood/broth as required and incubate at 37° C. for 2 h for outgrowth.\nAdd 5 mL of spiked blood+beads (set 1) and 5 mL of spiked blood/Abx+beads (set 3) to blood culture bottles (BioMerieux SA culture bottle) using a vial adapter (West Pharmaceutical Services, Inc. PA, US).\nRemove the adaptor and incubate the blood culture bottles in the automated blood culture cabinet (BacT/ALERT BioMerieux) for up to 5 days.\nas §3, §1\nas §2, with “Incubate on ITL TherMix (32.5° C./30 min/1000 rpm—ramped speed protocol) • 6.” left out\nas §5, with “Incubate on ITL TherMix (32.5° C./30 min/1000 rpm—ramped speed protocol) • 6.” left out"}, "[4]": {"test_system": "Candida albicans", "test": "Blood culture time to positivity (flip time), bead rescue vs no-rescue control", "type": "cell-based", "conditions": "4000 cfu/5 mL Blood", "protocol": "(§6) Day 1: […] (or 30° C. for C. neoformans) in a shaking incubator. Day 2: […] (or 30° C. for C. neoformans) for 2 h for outgrowth. • Antibiotic added to whole blood (defibrinated horse blood) at required level • Whole blood as no-antibiotic control • Test dilution(s) of organism added to blood+antibiotic or blood only at 10 μL per mL of blood (sufficient prepared for experiment requirements) • 100 μL plate count sample taken (TO sample) • 2-hour incubation (static) at 37° C. […] […] on V&P magnet for 10 min then remove supernatant • 7. […] […] for 3 min then remove supernatant • 9. Resuspend beads in 1 mL Detergent-free Wash Buffer (DWB) off magnet then replace on DynaMag-2 magnet • 10. […] for 3 min then remove supernatant • 11. Resuspend beads in 1 mL DWB, add to new blood culture bottle (using vial adapter) and start incubation (adapter removed) […] The “Flip” time is when a bottle turns positive as determined by the automated blood culture cabinet, which records time to positivity."}, "[5]": {"test_system": "Cryptococcus neoformans", "test": "Blood culture time to positivity (flip time), bead rescue vs no-rescue control", "type": "cell-based", "conditions": "antibiotic 2 mg/L blood; 102200 cfu/5 mL Blood", "protocol": "as §6"}},
  "data": [
    {"compound": "CO/N=C(\\C(=O)N[C@@H]1C(=O)N2C(C(=O)O)=C(CSc3nc(=O)c(=O)[nH]n3C)CS[C@H]12)c1csc(N)n1", "note": "[Ceftriaxone]", "values": [
      {"measurement": "Flip time", "setting": "[1]; Ceftriaxone 10 mg/L blood", "value": 0.46, "unit": "days"},
      {"measurement": "Flip time", "setting": "[1]; Ceftriaxone 50 mg/L blood", "value": 0.47, "unit": "days"},
      {"measurement": "Flip time", "setting": "[1]; Ceftriaxone 94 mg/L blood", "value": 0.52, "unit": "days"},
      {"measurement": "Flip time", "setting": "[1]; Ceftriaxone 125 mg/L blood", "value": 0.49, "unit": "days"},
      {"measurement": "Flip time", "setting": "[1]; Ceftriaxone 250 mg/L blood", "value": 0.51, "unit": "days"},
      {"measurement": "Flip time in Days", "setting": "[1]; Ceftriaxone 10 mg/L blood", "value": "Neg"},
      {"measurement": "Flip time in Days", "setting": "[1]; Ceftriaxone 50 mg/L blood", "value": "Neg"},
      {"measurement": "Flip time in Days", "setting": "[1]; Ceftriaxone 94 mg/L blood", "value": "Neg"},
      {"measurement": "Flip time in Days", "setting": "[1]; Ceftriaxone 125 mg/L blood", "value": "Neg"},
      {"measurement": "Flip time in Days", "setting": "[1]; Ceftriaxone 250 mg/L blood", "value": "Neg"}
    ]},
    {"compound": "CO/N=C(\\C(=O)N[C@@H]1C(=O)N2C(C(=O)O)=C(COC(C)=O)CS[C@H]12)c1csc(N)n1", "note": "[Cefotaxime]", "values": [
      {"measurement": "MIC", "setting": "[2]", "value": "≤1", "unit": "µg/mL"},
      {"measurement": "Flip time", "setting": "[3]; Cefotaxime 100 mg/L blood, 50800 cfu/5 mL blood", "value": 0.39, "unit": "days"},
      {"measurement": "Flip time", "setting": "[3]; Cefotaxime 100 mg/L blood, 508000 cfu/5 mL blood", "value": 0.31, "unit": "days"},
      {"measurement": "Flip time in Days", "setting": "[3]; Control (FA plus bottle), Cefotaxime 100 mg/L blood, 50800 cfu/5 mL blood", "value": "Neg"},
      {"measurement": "Flip time in Days", "setting": "[3]; Control (FA plus bottle), Cefotaxime 100 mg/L blood, 508000 cfu/5 mL blood", "value": "Neg"}
    ]},
    {"compound": "C[C@@H]1[C@H](O)[C@@H](C)/C=C/C=C/C=C/C=C/C=C/C=C/C=C/[C@H](O[C@@H]2O[C@H](C)[C@@H](O)[C@H](N)[C@@H]2O)C[C@@H]2O[C@](O)(C[C@@H](O)C[C@@H](O)[C@H](O)CC[C@@H](O)C[C@@H](O)CC(=O)O[C@H]1C)C[C@H](O)[C@H]2C(=O)O", "note": "[Amphoteracin B]", "values": [
      {"measurement": "Bead Rescue Flip time", "setting": "[4]; antibiotic 1 mg/L blood", "value": 1.27, "unit": "days"},
      {"measurement": "Control Flip time", "setting": "[4]; antibiotic 1 mg/L blood", "value": 2.22, "unit": "days"},
      {"measurement": "Bead Rescue Flip time", "setting": "[4]; antibiotic 2 mg/L blood", "value": 1.85, "unit": "days"},
      {"measurement": "Control Flip time", "setting": "[4]; antibiotic 2 mg/L blood", "value": 2.98, "unit": "days"},
      {"measurement": "Bead Rescue Flip time", "setting": "[5]", "value": 3.14, "unit": "days"},
      {"measurement": "Control Flip time", "setting": "[5]", "value": 3.7, "unit": "days"}
    ]},
    {"compound": "CO/N=C(\\C(=O)N[C@@H]1C(=O)N2C(C(=O)O)=C(CSc3nc(=O)c(O)nn3C)CS[C@H]12)c1csc(N)n1", "note": "[Celtriaxone]", "values": [
      {"measurement": "Bead Rescue Flip time", "setting": "[1]; 200 cfu/5 mL Blood", "value": 0.86, "unit": "days"},
      {"measurement": "Control Flip time in Days", "setting": "[1]; 200 cfu/5 mL Blood", "value": "Neg"},
      {"measurement": "Bead Rescue Flip time", "setting": "[1]; 10000 cfu/5 mL Blood", "value": 0.71, "unit": "days"},
      {"measurement": "Control Flip time in Days", "setting": "[1]; 10000 cfu/5 mL Blood", "value": "Neg"},
      {"measurement": "Bead Rescue Flip time", "setting": "[1]; 100000 cfu/5 mL Blood", "value": 0.68, "unit": "days"},
      {"measurement": "Control Flip time in Days", "setting": "[1]; 100000 cfu/5 mL Blood", "value": "Neg"}
    ]},
    {"compound": "O=C(O)c1cn(C2CC2)c2cc(N3CCNCC3)c(F)cc2c1=O", "note": "[Ciprofloxacin]", "values": [
      {"measurement": "Flip time In Days", "setting": "[3]; Ciprofloxacin 0.075 mg/L blood, 11400 Cfu/mL (first set, r5-r10), bead rescue with named bead type, antibiotic-labelled line = BC control without beads", "value": "Negative"},
      {"measurement": "Flip time In Days", "setting": "[3]; Ciprofloxacin 0.075 mg/L blood, 11400 Cfu/mL (second set, r11-r16), bead rescue with named bead type, antibiotic-labelled line = BC control without beads", "value": "Negative"},
      {"measurement": "Difference (Days) compared to BE", "setting": "[3]; Ciprofloxacin 0.075 mg/L blood, 380800 Cfu/mL (some rows print 360800), antibiotic-labelled line = BC control without beads", "value": "Negative"},
      {"measurement": "Flip time in Days", "setting": "[3]; Ciprofloxacin 0.075 mg/L blood, 380800 Cfu/mL (some rows print 360800), bead rescue with named bead type, antibiotic-labelled line = BC control without beads", "value": "Negative"},
      {"measurement": "Difference (Days) compared to BE", "setting": "[3]; Ciprofloxacin 0.075 mg/l blood, 11400 Cfu/mL (first set, r5-r10), antibiotic-labelled line = BC control without beads", "value": "Negative"},
      {"measurement": "Difference (Days) compared to BE", "setting": "[3]; Ciprofloxacin 0.075 mg/l blood, 11400 Cfu/mL (second set, r11-r16), antibiotic-labelled line = BC control without beads", "value": "Negative"},
      {"measurement": "No-rescue blood culture control result", "setting": "[3]; Example 23, E. coli in blood containing 0.075 mg/L Ciprofloxacin", "value": "negative after 5 days"},
      {"measurement": "Blood culture controls (no bead rescue) result", "setting": "[3]; Example 24, E. coli in blood containing 0.075 mg/L Ciprofloxacin", "value": "negative"},
      {"measurement": "Bead Rescue Flip time", "setting": "[3]; 100000 cfu/5 mL Blood", "value": 0.68, "unit": "days"},
      {"measurement": "Control Flip time in Days", "setting": "[3]; 100000 cfu/5 mL Blood", "value": "Neg"},
      {"measurement": "Bead Rescue Flip time", "setting": "[3]; 1000000 cfu/5 mL Blood", "value": 0.61, "unit": "days"},
      {"measurement": "Control Flip time in Days", "setting": "[3]; 1000000 cfu/5 mL Blood", "value": "Neg"}
    ]}
  ]
}
